Results published in article PMC7753357, “Population Pharmacokinetics and Model-Based Dosing Optimization of Teicoplanin in Pediatric Patients” (Frontiers in Pharmacology, 2020).
Where “and” joins values, the source holds several entries; their conditions need not be identical. Equal entries are not always repeated. Where two headings read alike, the source gives them in different places.

Legend:
[1] = Population pharmacokinetic analysis (NONMEM, one-compartment model) in hospitalized children; type: in vivo, human
From the text: This was a retrospective PK study performed in two hospitals in China according to the principles of the current Declaration of Helsinki and Good Clinical Practice (Hospital 1: the First Affiliated Hospital of Xi’an Jiaotong University; Hospital 2: the Affiliated Children Hospital of Xi’an Jiaotong University). The protocol was approved by the institutional review board of each study site (No.XJTU1AF2017LSK-28). All patients aged 1 month to 18 years old receiving teicoplanin (Targocid, Sanofi-Aventis) for proven or suspected MRSA infection were selected for the study over 33-month period (March 2017 and November 2019). Children were excluded if a complete teicoplanin dosing history or precise sampling time was not available. The demographic variables with potential impact on the PK of teicoplanin and details of teicoplanin administration (dose and infusion start and stop times) were extracted from medical records retrospectively by a trained research assistant. If serum creatinine (SCr) readings were unavailable around the teicoplanin dosing (±48 h), the closest available SCr reading would be imputed. Creatinine clearance (CLcr) was estimated by Cockcroft formula: CLcr = (140 – age (years)) ×weight (WT, kg) × 0.85 (if female)/0.818 × SCr (μmol/L), instead of Schwartz formula due to the lack of height data in most children ([Cockcroft and Gault, 1976]).
(§1) Teicoplanin was administered at three loading doses of 10 mg/kg every 12 h, followed by 6–10 mg/kg/day. Types of blood samples included therapeutic drug monitoring (TDM) sample, and opportunistic sample. TDM was typically performed within 30 min preceding a dose at steady state. Samples were centrifuged for 10 min. Serum was separated and stored at −80°C until analysis. The laboratory staff were allowed to identify the opportunistic samples with the timings of blood taking documented and store them at −80°C after routine testing and pretreatment. Teicoplanin concentrations were determined with a validated high performance liquid chromatography method. The calibration curve ranged from 2.5 to 100 mg/L, and lower limit of […] (LLOQ) of this assay was 2.5 mg/L. Intra- and inter-day precision values were 3.5 and 6.2%, respectively ([Wang et al., 2015]). For the samples below the LLOQ, concentration values were recorded as LLOQ of 2.5 mg/L.
Population pharmacokinetic (PPK) analysis was performed using NONMEM (version 7.2). A one-compartment PK model with first-order elimination (ADVAN1 TRANS2) was implemented. The concentration-time data for teicoplanin were modeled by first-order conditional estimation with interaction (FOCE-I). We evaluated inter-individual variability using an exponential error model. Residual variability was selected from additive, proportional, exponential, and combined additive and proportional error models according to acceptable standard errors, physiological plausibility of population clearance (CL) and distribution volume (Vd) estimates, improvement of the objective function value (OFV) and good visual representation of standard diagnostic plots. Demographic characteristics (age, gender, WT), renal functions (blood urea nitrogen, SCr, CLcr), biochemical data (total protein, albumin), status of disease (sepsis, endocarditis), and nephrotoxic medications received during teicoplanin therapy were investigated as potential variables on PK parameters. CLcr was calculated by the Cockcroft formula ([Cockcroft and Gault, 1976]). […]

[2] = ref Svetitsky et al., 2009; cited from earlier work
Experimental: There are large differences in the optimal dosage regimens provided by the two methods (Table 3). Taken together, optimal dosage regimens based on the C min targets in our study are recommended, which are three loading doses of 10 mg/kg every 12 h, followed by a maintenance dose of 12 mg/kg/day for C min of > 10 mg/L and three loading doses of 13 mg/kg every 12 h, followed by a maintenance dose of 16 mg/kg/day for C min of > 15 mg/L. The reasons are as follows: 1) The maintenance dose based on the C min targets are higher than that based PK/PD targets. In other words, maintenance dose based on ...

[3] = cited from earlier work
From the text: Supplement table1.docx, table 1: TABLE S1 Pharmacokinetic Study of teicoplanin in pediatric patients. | column: Clearance (CL) , L/h; Volume of distribution (Vd) , L || Teicoplanin is a glycopeptide antibiotic with activity against methicillin-resistant Staphylococcus aureus (MRSA) ([Traina and Bonati, 1984]). […] Teicoplanin trough concentration (C min) is closely associated with clinical efficacy. […] Due to widespread systemic inflammation, patients may often have an ARC in PICU patients ([Van Der Heggen et al., 2019]), and increased volume ... || (+ 2 further places)

[4] = cited from earlier work; remark: listed apart in the source
From the text: Teicoplanin is a glycopeptide antibiotic with activity against methicillin-resistant Staphylococcus aureus (MRSA) ([Traina and Bonati, 1984]). […] Teicoplanin trough concentration (C min) is closely associated with clinical efficacy. For the moderate (such as respiratory tract infections, urinary tract infections and skin and soft-tissue infections) and severe infection (such as sepsis, infective endocarditis, bone an ... || There are large differences in the optimal dosage regimens provided by the two methods (Table 3). Taken together, optimal dosage regimens based on the C min targets in our study are recommended, which are three loading doses of 10 mg/kg every 12 h, followed by a maintenance dose of 12 mg/kg/day for C min of > 10 mg/L and three loading doses of 13 mg/kg every 12 h, followed by a maintenance dose of 16 mg/kg/day for C min of > 15 mg/L. The reasons are as follows: 1) The maintenance dose based on the C min targets are higher than that based PK/PD targets. In other words, maintenance dose based on ...

[5] = Serum teicoplanin concentrations (TDM and opportunistic samples, HPLC); type: in vivo, human; details: SD
Experimental: as §1

[6] = Nephrotoxicity and adverse events in patients; type: in vivo, human; details: all after the last sample was collected
[7] = ref Lukas et al., 2004; cited from earlier work
From the text: (§2) Teicoplanin is a glycopeptide antibiotic with activity against methicillin-resistant Staphylococcus aureus (MRSA) ([Traina and Bonati, 1984]). […] Teicoplanin trough concentration (C min) is closely associated with clinical efficacy. For the moderate (such as respiratory tract infections, urinary tract infections and skin and soft-tissue infections) and severe infection (such as sepsis, infective endocarditis, bone an ...

albumin = details: ref Lukas et al., 2004; cited from earlier work
From the text: as §2

[8] = most recent study in Chinese children, ref Gao et al., 2020

## Teicoplanin
[1]; bootstrap
  Vd, mean of 1,000 bootstrap replicates: 1.77 L
[1]; bootstrap success rate 96.5%
  CL, mean of 1,000 bootstrap replicates: 0.0718 L/h
[1]; population PK, one-compartment, Vd=1.39×θ3(WT/16.71)
  Vd, final model estimate: 1.39 L
[1]; this study
  Estimate of Vd per kg: 0.15 L/kg
  Typical population value of CL per kg: 0.233 mL/min/kg
[2]
  Adverse events compared with vancomycin: lower adverse event compared with vancomycin
[3]; 24 h after the first dose, ref Sanchez et al., 1999
  Mean C min: 4800 ng/mL
[3]; 72 h after the first dose, ref Sanchez et al., 1999
  Mean C min: 5700 ng/mL
[3]; 168 h after the first dose, ref Sanchez et al., 1999
  Mean C min: 5900 ng/mL
[3]; PICU Caucasians, ref Aarons et al., 1998, Lukas et al., 2004, Ramos-Martin et al., 2014, Reed et al., 1997, Sanchez et al., 1999, Terragna et al., 1988, Zhao et al., 2015
  CL: 0.5 to 1.23 mL/min/kg
[3]; children, n=39, England, FPIA, ref Ramos-Martin (2014)
  Volume of distribution (Vd): 4.138 L
[3]; children, n=136, China, population PK, ref Gao (2020)
  Q: 0.23 L/h
[3]; children, ref Supplementary Table S1
  Vd in other studies: 0.2 to 1.02 L/kg
[3]; [8]
  CL estimate: 0.217 mL/min/kg
  Vd: 1.85 L/kg
[3]; non-PICU Caucasians, ref Aarons et al., 1998, Lukas et al., 2004, Ramos-Martin et al., 2014, Reed et al., 1997, Sanchez et al., 1999, Terragna et al., 1988, Zhao et al., 2015
  CL: 0.25 to 0.4 mL/min/kg
[3]; previous clinical studies, ref Sanchez et al., 1999, Strenger et al., 2013, Zhao et al., 2015
  Proportion of children failing to achieve the target C min: 48–89%
[3]; ref Aarons et al., 1998, Lukas et al., 2004, Ramos-Martin et al., 2014, Reed et al., 1997, Sanchez et al., 1999, Terragna et al., 1988, Zhao et al., 2015
  CL in children: 0.25 to 1.23 mL/min/kg
[3]; ref Lukas et al., 2004
  Overall mean C min: 9000 ng/mL
[3]; ref Ramos-Martin et al., 2014
  Vd: 0.2 L/kg
[3]; ref Sanchez et al., 1999
  C min achieved with current maintenance doses in another study: 4800 to 5900 ng/mL
[3]; two studies in patients admitted to the PICU, ref Reed et al., 1997, Sanchez et al., 1999
  CL: 0.75 mL/min/kg and 0.5 mL/min/kg
[4]; ref Kasai et al., 2018
  Elimination half-life compared with vancomycin: longer elimination half-life than vancomycin
[4]; ref Rowland, 1990
  Linearity of PK: linear PK
[4]; seven out of ten of the CL reported, ref Byrne et al., 2018, Cazaubon et al., 2017, Kasai et al., Lamont et al., 2005, Soy et al., 2006, Yamada et al., 2012, Yu et al., 1995
  CL in adults: lower than 0.01 L/h/kg
[5]; Hospital 1, n=13, 21 samplings
  Teicoplanin concentration, mean ± standard deviation: 9.3 ± 10.1 mg/L
[5]; Hospital 2, n=212, 304 samplings
  Teicoplanin concentration, mean ± standard deviation: 9.1 ± 8.9 mg/L
[5]; model evaluation data, n = 66, 89 samplings
  Teicoplanin concentration, mean ± standard deviation: 9.6 ± 5.6 mg/L
[5]; model-building data, n = 159, 236 samplings, HPLC, LLOQ 2.5 mg/L
  Teicoplanin concentration, mean ± standard deviation: 8.6 ± 12.1 mg/L
[6]
  Children who developed nephrotoxicity during hospitalization: Nine
[7]
  Hydrophilicity of the marketed drug: hydrophilic
albumin
  Bound to albumin in plasma: > 90%
